Data reported in US20130303575A1, “ADMINISTRATION OF AN INHIBITOR OF HDAC” (priority 2007, published 2013).

What was measured:
[1] = clinical; conditions: human, in vivo
Protocol: (§1) Histone H3 and H4 acetylation was analyzed in peripheral blood mononuclear cells (PBMCs) by immunohistochemical detection.
Blood samples (5 ml) were taken at the following times:
Blood was centrifuged for 10 minutes at 2000 g at room temperature within approximately 30 minutes after withdrawal; plasma was separated and stored at −18° C. to −25° C. until analysis.

[2] = tested on: refractory solid tumors or lymphomas; experiment: Tumor response by Response Evaluation Criteria on Solid Tumors (Example 1); type: in vivo, human
Protocol: Tumor response was assessed every 6 weeks on the biweekly schedule (Schedule A) and every 8 weeks on the twice-weekly (Schedule B) and weekly (Schedule C) schedules, using appropriate imaging studies. Tumor responses were defined by the Response Evaluation Criteria on Solid Tumors.

[3] = tested on: Histone H3 and H4 acetylation; experiment: Histone H3 and H4 acetylation in PBMCs by immunohistochemical detection (Example 1); type: in vivo, human; conditions: compared with pretreatment, preliminary analyses
Protocol: as §1

[4] = Plasma pharmacokinetics of oral SNDX-275 in adults with advanced acute leukemias (Example 3); type: in vivo, human; conditions: for AUC / Cmax / half-life / Tmax: human, plasma, oral; for AUC: read-out: AUC (mean and SD); for Cmax: read-out: Cmax (mean and SD)
Protocol: Separated plasma was immediately frozen on dry ice and then stored at -70° C. until analysis. […] The pharmacokinetic parameters of interest included peak plasma concentration (Cmax), time to peak concentration (Tmax), area under the plasma concentration versus time curve extrapolated to infinity (AUC), apparent oral clearance (CL/F), and the terminal half-life (T1/2, z). […] The influence of the dose level on CL/F was evaluated using the Kruskal-Wallis' one-way analysis of ranks test, followed by the Dunn's multiple comparison test for identifying statistically significant group differences. These calculations were preformed with the software package NCSS version 2001 (Number Cruncher Statistical Systems, […], Utah).

[5] = 4 mg/m2, 4 mg/m^2, first dose, with food, 7 patients

SMILES: Nc1ccccc1NC(=O)c1ccc(CNC(=O)OCc2cccnc2)cc1 [SNDX-275, N-(2-aminophenyl) 4-[N-(pyrid-3-yl)methyloxycarbonylaminomethyl]benzamide]
- Tmax [1]: 0.5 to 2.0 h
- apparent drug clearance (CL/F) [1]: low
- AUC ([1]; 2 mg/m2): 107 ng·h/mL
- AUC(0-t) ([1]; 2 mg/m2, AUC(0-48)): 60.1 ng·h/mL
- Cmax ([1]; 2 mg/m2, Cmax): 25.3 ng/mL
- AUC ([1]; 2 mg/m2, Mean AUC): 135 ng·h/mL
- half-life ([1]; 2 mg/m2, Mean t1/2): 54 h
- Tmax ([1]; 2 mg/m2, Median Tmax): 0.6 h
- half-life ([1]; 2 mg/m2, T1/2): 100 h
- Tmax ([1]; 2 mg/m2, Tmax): 0.5 h
- AUC ([1]; 4 mg/m2, Mean AUC): 323 ng·h/mL
- half-life ([1]; 4 mg/m2, Mean t1/2): 87.9 h
- Tmax ([1]; 4 mg/m2, Median Tmax): 0.5 h
- T1/2 ([1]; 5 mg/m2): 77 h
- AUC ([1]; 5 mg/m2, AUC): 432 ng·h/mL
- AUC(0-t) ([1]; 5 mg/m2, AUC(0-48)): 153 ng·h/mL
- Cmax ([1]; 5 mg/m2, Cmax): 72 ng/mL
- AUC ([1]; 5 mg/m2, Mean AUC): 494 ng·h/mL
- Cmax ([1]; 5 mg/m2, Mean Cmax): 77.3 ng/mL
- half-life ([1]; 5 mg/m2, Mean t1/2): 133 h
- Tmax ([1]; 5 mg/m2, Median Tmax): 0.5 h
- half-life ([1]; 5 mg/m2, T1/2): 112 h
- Mean CL/F ([1]; 6 mg/m2): 16.7 L/h
- AUC ([1]; 6 mg/m2, AUC): 412 ng·h/mL
- AUC(0-t) ([1]; 6 mg/m2, AUC(0-48)): 170 ng·h/mL
- AUC ([1]; 6 mg/m2, Mean AUC): 459 ng·h/mL
- Cmax ([1]; 6 mg/m2, Mean Cmax): 37.3 ng/mL
- half-life ([1]; 6 mg/m2, Mean t1/2): 107 h
- Tmax ([1]; 6 mg/m2, Median Tmax): 1 h
- half-life ([1]; 6 mg/m2, T1/2): 102 h
- half-life ([1]; T1/2): ~100 h
- Tmax ([1]; Tmax): ≤ 1 h
- patients with stable disease ([2]; all schedules): 7
- patients with partial response ([2]; melanoma, Schedule A): One
- time on SNDX-275 of the patient with partial response ([2]; one melanoma patient): ≥ 22 months
- duration of stable disease ([2]; one patient with Ewing's sarcoma, Schedule A): ≥ 60 weeks
- duration of stable disease ([2]; one patient with melanoma, Schedule B): ≥ 20 weeks
- duration of stable disease ([2]; one patient with rectal carcinoma, Schedule A): ≥ 38 weeks
- histone H3 and H4 acetylation in PBMCs [3]: increase in histone H3 and H4 acetylation
- AUC with increasing doses ([4]; 4 to 10 mg/m^2): reached a plateau
- T1/2 (mean and SD), terminal half-life ([4]; All doses, n = 27): 36 h
- AUC [4, 5]: 208 ± 86.1 ng·h/mL
- Cmax [4, 5]: 4.74 ± 3.41 ng/mL
- half-life ([4]; 4 mg/m2, 4 mg/m^2, first dose, with food, 7 patients, read-out: T1/2 (mean and SD) (converted)): 36.6 ± 18.6 h
- Tmax ([4]; 4 mg/m2, 4 mg/m^2, first dose, with food, 7 patients, read-out: Tmax (median)): 12 h
- Cmax ([4]; 6 mg/m2, 6 mg/m^2, first dose, with food, 7 patients): 4.87 ± 1.76 ng/mL
- Tmax ([4]; 6 mg/m2, 6 mg/m^2, first dose, with food, 7 patients, read-out: Tmax (median)): 12 h
- AUC ([4]; 6 mg/m2, 6 mg/m^2, first dose, with food, n = 5): 351 ng·h/mL
- half-life ([4]; 6 mg/m2, 6 mg/m^2, first dose, with food, n = 5, read-out: T1/2 (mean and SD) (converted)): 43.8 ± 16.4 h
- Cmax ([4]; 8 mg/m2, 8 mg/m^2, first dose, with food, 15 patients): 53.1 ± 92.4 ng/mL
- Tmax ([4]; 8 mg/m2, 8 mg/m^2, first dose, with food, 15 patients, read-out: Tmax (median)): 1 h
- AUC ([4]; 8 mg/m2, 8 mg/m^2, first dose, with food, n = 10): 328 ng·h/mL
- half-life ([4]; 8 mg/m2, 8 mg/m^2, first dose, with food, n = 10, read-out: T1/2 (mean and SD) (converted)): 33.4 ± 12.7 h
- Cmax ([4]; 10 mg/m2, 10 mg/m^2, first dose, with food, 6 patients): 53.2 ± 58 ng/mL
- Tmax ([4]; 10 mg/m2, 10 mg/m^2, first dose, with food, 6 patients, read-out: Tmax (median)): 1 h
- AUC ([4]; 10 mg/m2, 10 mg/m^2, first dose, with food, n = 5): 312 ng·h/mL
- half-life ([4]; 10 mg/m2, 10 mg/m^2, first dose, with food, n = 5, read-out: T1/2 (mean and SD) (converted)): 30.4 ± 13.9 h
- Tmax ([4]; All doses, 35 patients, read-out: Tmax (median)): ~2 h
- half-life ([4]; All doses, n = 27, read-out: T1/2 (mean and SD), terminal half-life (converted)): 35.6 ± 15 h
- Tmax ([4]; all dose levels, read-out: range of Tmax values): 0.5 to 36 h
